What was measured:
leucocyte migration = assay: In vivo leucocyte migration (carrageenan induced pleurisy); parameters: species or system mice; conditions: 5 mg/kg p.o.
Experimental: Mice were injected with 0.2 ml of carrageenan (1% w/v) solution in sterilised normal saline into the pleural cavity by the modified method of Meacock and Kitchen, 1979 [Meacock S C R, Kitchen E A, (1979). Effect of non-steroidal antiinflammatory drug benoxaprofen on leukocyte migration. Journal of Pharmacy & Pharmacology; 31: 366-370]. The test drug was administered orally 1 h before and 6 h after the injection. After 24 h of carrageenan injection the pleural exudate was collected, volume measured and the total leucocyte count of the pleural fluid was determined (Table 3). Flowcytometry as a tool for evaluation of neutrophils is particularly useful because of their larger size than monocytes and lymphocytes when analysed on the forward scatter [FSc]. The percentage of these can be analysed by selectively ‘gating’ the neutrophils without physical separation of the cells (FIG. 4).

[1] = test system: peritoneal murine macrophages; assay: Phagocytosis of heat killed Candida albicans by murine macrophages (in vitro); format: cell-based; conditions: 5 μg/ml
Experimental: The method of Lehrer (1981) [Lehrer, R. I. Ingestion and destruction of Candida albicans. (1981) In: Methods for studying mono-nuclear phagocytes. Eds. Adams, D. O., Edelson, P. J. and Koren, H. (Academic Press, New York) 693-7081 was followed. The percentage and average number of Candida albicans cells (heatkilled) ingested by peritoneal murine macrophages was calculated. AD-B-63B was tested at the doses of 1, 2.5, Sand 10 μg/mL (Table 4).

skin allograft rejection = assay: Skin allograft rejection time; format: in vivo, mice; conditions: for GRAFT REJECTION (Percent), delayed: 5 mg/kg p.o.
Experimental: The modified method of Billingham and Medawar (1951) [[…]] was followed to study the skin allograft rejection time in mice. Graded doses of test material AD-B-63B were administered to the animals for 7 days and graft rejection time (GRT) was recorded by daily observation of epithelial skin layer survival. […] The basic mechanism involved in increase in graft rejection time is the suppression of T lymphocytes. After transplantation, MHC peptide complexes of the foreign organ are recognized by CD4+ and CD8+ T cells of the recipient as non-self antigens. These T cells differentiate into effector T cells and stimulate an immune response. After T cells differentiate and migrate to the site, macrophages and other inflammatory agents are mediated to the site. Cytotoxic T cells (CD8+) lyse the endothelial cells on the graft, CD4+ Th1 activate macrophages and CD4+ Th2 aid in antibody production.

[2] = test system: cell mediated immune response (DTH); assay: SRBC induced delayed type hypersensitivity (DTH) response; format: in vivo, mice; conditions: 5 mg/kg p.o.
Experimental: Test material was administered 2 h after immunization of mice by 200 μl of 5×10^9 SRBCs/ml. On 7th day, the thickness of the left hind foot was measured with spheromicrometer (0.01 mm pitch) and was considered as control. These mice were then challenged by injecting the 20 μl of 5×10^9 SRBCs/ml intradermally into the left hind footpad. The footpad thickness was measured again at 24 h after challenge (Doherty, 1981).

[3] = test system: humoral antibody response; assay: SRBC induced haemagglutination antibody titre (humoral immune response); format: in vivo, mice
Experimental: 200 μl of 5×10^9 SRBC/ml was used to immunize the animals on day 0. Animals were treated with graded doses of AD-B-63B i.e., 1, 2.5, 5 and 10mg/kg p.o. for next six consecutive days. Blood samples were collected on day 7 for antibody titre assay. Haemagglutination antibody titre was determined following the microtitration technique described by Nelson and Midenhall, 1967. The value of highest serum dilution causing visible Haemagglutination was taken as titre. BSA saline alone served as control (Table 7).

TNF-α = assay: Intracellular TNF-α estimation in LPS activated murine neutrophils by flowcytometry; format: cell-based; conditions: 100 μg/ml
Experimental: Flowcytometric studies were carried out to determine the anti-inflammatory effect of AD-B-63B on TNF-α cytokine expression in LPS activated murine neutrophils. Neutrophils play essential roles in host defence through their ability to clear bacterial infections. Their inappropriate activation contributes to a variety of inflammatory diseases, from the acute respiratory distress syndrome to asthma, chronic obstructive pulmonary disease and rheumatoid arthritis. TNF-α was chosen as the target for anti-inflammatory activity because of the fact that it is a pro-inflammatory cytokine and plays a major role in the pathogenesis of septic shock induced by LPS (Lipopolysaccharide) endotoxin injection [Remick, D. G.; Strieter, R. M.; Eskandari, M. K.; Nguyen, D. T.; Genord, M. A.; Raiford, C. L. Am. J. Path. 1990, 136, 49.]. LPS is an important triggering factor for in vivo systemic inflammatory response [Bone, R. C. Chest 1991, 100, 802]. LPS activates neutrophils via engagement of TLR4 (Toll-like receptor 4),[Sabroe, I.; Read, R. C.; Whyte, M. K. B.; Dockrell, D. H.; Vogel, S. N.; Dower, S. K. J. Immunol. 2003, 171, 1630.] resulting in the induction of a characteristic pro-inflammatory phenotype and prolongation of cell lifespan [Lee, A.; Whyte, M. K. B.; Haslett, C. J. Leukoc. Biol. 1993, 54, 283].
The anti-inflammatory activity of AD-B-63B was measured by the estimation of intracellular tumor necrosis factor alpha (TNF-α) expression in a gated population of neutrophils [Clara, B., R. C. Arancha, G. M. Andre's, P. Atanasio, A. Julia, and O. Alberto. 2003. A new method for detecting TNF-α-secreting cells using direct immunofluorescence surface membrane stainings. J. Immuno. Methods 264:77-87.]. Murine blood was subjected to centrifugation at 250× g for 20 min. Three layers were formed: an upper layer of platelet-rich plasma, a buffy coat middle layer and a lower layer formed of red blood cells. The middle layer was removed and subjected to Histopaque 1077 (Sigma) gradient separation. The upper layer containing neutrophils was removed and transferred to FACS tubes (Becton Dickinson). Lipopolysaccharide (LPS) derived from Escherichia coli (Sigma) was added at a concentration of 10 ng/ml for the stimulation of the cells. AD-B-63B was added at graded concentrations of 0.5, 1, 2.5, 5, 10 and 20 μg/ml. Samples were incubated for 3 h at 37° C. ( Table 1) Controls consisted of LPS-stimulated cells (LPS control). Further processing was done by the addition of FACS permeabilizing solution (Becton Dickinson), followed by the addition of phycoerythrin (PE)-labeled anti-mouse TNF-α. (Becton Dickinson). The cells were incubated in the dark, and after being washed with sterile PBS, samples were resuspended in PBS (pH 7.4) and acquired directly on the flow cytometer (FACS CANTO; Becton Dickinson). A fluorescence trigger was set on the […] parameter of the gated neutrophil populations (10,000 events). Rolipram at 100 μg/ml was used as standard inhibitor of TNF-α in this study. Fluorescence compensation, data analysis and data presentation were performed using software (Becton Dickinson) (FIG. 1) [Pandey A, Bani S, Kaul S, Sangawan P L; 2010, Selective Th1 upregulation by ethyl acetate fraction of Labisia pumila; 132 (2010) 309-315].

[4] = test system: Interleukin-1beta (IL-1β); assay: Extracellular IL-1β in LPS stimulated murine neutrophils (ELISA, in vitro); format: cell-based; conditions: 100 μg/ml
Experimental: Neutrophils were separated from whole blood by Histopaque gradient method (Histopaque-No. 1077). Cell count was adjusted to approximately 10^5/[…]. Lipopolysaccharide, at the concentration of 10 ng/ml was used as stimulus in in-vitro studies. […] Extracellular IL-1β was estimated through ELISA (Table 2) [Weir, R. E., Morgan, A. R., Britton, W. J., Butlin, C. R., Dockrell, H. M., 1994. Development of a whole blood assay to measure T cell responses to leprosy: a new tool for immuno-epidemiological fields studies of leprosy immunity. J. Immunol. Methods. 176, 93; Hussain, R., Kaleem, A., Shahid, F., Dojki, M., Jamil, B., Mehmood, H., Dawood, G., Dockrell, H., 2002. Cytokine profiles using whole blood assays can discriminate between tuberculosis patients and healthy endemic controls in a BCG-vaccinated population. J. Immunol. Methods. 264, 95-108]

Compound: C[C@]12C=CC(=O)C=C1CC[C@@H]1[C@@H]2[C@@H](O)C[C@@]2(C)[C@H]1CC[C@]2(O)C(=O)CO [Prednisolone, reference compound]
- % inhibition of exudate volume (leucocyte migration): (47.27%↓)
- % inhibition of total leucocyte count (leucocyte migration): (33.23%↓)
- EXUDATE VOLUME Mean ± S.E. (leucocyte migration; 1 h before and 6 h after carrageenan, pleural exudate at 24 h): 0.58 ± 0.28 mL
- % phagocytosis [in vitro study] Mean ± S.E. [1]: 15.99 ± 2.17%
- percent decrease in phagocytosis [1]: 40.35%
- percent decrease in phagocytosis ([1]; listed as PREDNISOLONE): (40.35%↓)
- GRAFT REJECTION (Percent), delayed (skin allograft rejection): 39.69%
- REJECTION TIME Mean ± S.E. (skin allograft rejection; 5 mg/kg p.o. for 7 days): 18.16 ± 0.16 days
- GRAFT REJECTION (Percent), delayed (skin allograft rejection; listed as PREDNISOLONE): 39.69↓ %
- PERCENT INHIBITION (DTH response) [2]: 35.86↓ %
- FOOT PAD THICKNESS Mean ± SE ([2]; 24 h after SRBC challenge): 0.59 ± 0.05 mm
- % ACTIVITY (decrease in antibody titre) ([3]; 5 mg/kg p.o.): 35.22↓ %
- ANTIBODY TITRE MEAN ± S.E ([3]; 5 mg/kg p.o. for six days, blood on day 7): 3.99 ± 0.22

Compound: COc1ccc(C2CNC(=O)C2)cc1OC1CCCC1 (centres unmarked) [Rolipram, reference compound]
- Expression of intracellular TNF-alpha, Mean ± S.E (TNF-α; LPS 10 ng/ml, 3 h): 0.74 ± 0.04
- inhibition at 100 µg/mL (TNF-α; Mus musculus, Neutrophil, read-out: % TNF-alpha inhibition against LPS control): 72.5%
- % activity IL-1β expression against LPS control (decrease) [4]: 52.85↓ %
- Concentration of IL-1β produced Mean ± S.E. ([4]; LPS 10 ng/ml, 4 hr): 63.52 ± 2.07 pg/mL

From US20130136772A1, “REGULATION OF IMMUNE RESPONSE BY COLOCYNTHIN AND/OR ITS DERIVATIVES” (priority 2010, published 2013)
